Tests used:
Caspase-1 = target: T1, Caspase-1 (Homo sapiens, UniProt P29466); test: Caspase-1 enzyme inhibition (Ki); type: biochemical; settings: substrate Suc-YVAD-pNA 80 μM, 37° C., pH 7.5
T1 sequence (P29466 120-297 limits assumed): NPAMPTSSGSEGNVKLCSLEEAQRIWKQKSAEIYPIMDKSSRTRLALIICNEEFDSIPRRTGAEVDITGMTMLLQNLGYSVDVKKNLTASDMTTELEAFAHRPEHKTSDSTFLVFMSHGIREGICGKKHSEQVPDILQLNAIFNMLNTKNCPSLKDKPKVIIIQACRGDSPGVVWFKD
T1 sequence (P29466 317-404 limits assumed): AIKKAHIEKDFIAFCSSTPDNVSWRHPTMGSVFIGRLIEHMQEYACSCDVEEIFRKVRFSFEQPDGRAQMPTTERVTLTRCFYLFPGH
How it was run: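 Ki obtained by fitting rate versus inhibitor concentration to the Morrison tight-binding equation for competitive inhibitors, with pNA release read at 405 nm at 37 °C. Substrate Suc-YVAD-pNA (80 μM final) added after 15 min enzyme–inhibitor preincubation in Tris pH 7.5 buffer with DTT and CHAPS.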

[1] = test system: Human Peripheral Blood Mononuclear Cells (PBMC), mature IL-1β; test: PBMC cell assay: IL-1β assay with human peripheral blood mononuclear cells; type: cell-based; settings: LPS-stimulated human PBMC, mature IL-1β in supernatant by ELISA
How it was run: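 Donor PBMC (suspension at 6×10^6 cells/ml) or adherent-enriched monocytes were stimulated with 5 ng/ml LPS (final) alongside 5–6 compound dilutions bracketing the ICE Ki, at 0.1% DMSO final, for 16–18 hr at 37° C, 5% CO2. Mature IL-1β in supernatants was measured by ELISA; IC50 was calculated relative to LPS-only controls.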

[2] = Single pass perfusion in rat: GI wall and liver metabolism, biliary excretion; type: in vitro ADME; settings: for f (g) Xf (h): GI wall metabolism f(g) x liver metabolism f(h)
Method: Single pass perfusion studies in rat were performed to assess gastrointestinal (GI) wall metabolism (f(g)), liver metabolism (f(h)), and biliary excretion. The method used has been described in Pang, C. S., J. Pharmacol. Exp. Therapeutics, 333, pp. 788-798 (1984).

Row | SMILES | Ki (Caspase-1) | Biliary Excretion [2] | f (g) Xf (h) [2] | IC50 [1]
1 | COc1ccc(C(=O)NC(C(=O)N2CCCC2C(=O)NC(C=O)CC(=O)O)C(C)(C)C)cc1 (centres unmarked) [Example 69, 3-({1-[2-(4-Methoxy-benzoylamino)-3,3-dimethyl-butyryl]-pyrrolidine-2-carbonyl}-amino)-4-oxo-butyric acid] | < 10 nM | A (category “A” indicates <5%) | C (Category “C” indicates 0.5-0.75) | < 500 nM
2 | COc1c(Cl)cc(C(=O)N[C@@H](C)C(=O)N2CCC[C@H]2C(=O)N[C@H](C=O)CC(=O)O)cc1Cl [Example 122c, 3-({1-[2-(3,5-Dichloro-4-methoxy-benzoylamino)-propionyl]-pyrrolidine-2-carbonyl}-amino)-4-oxo-butyric acid] | < 10 nM | B (Category “B” indicates 5-10%) | C (Category “C” indicates 0.5-0.75) | > 2000 nM
3 | COc1c(C)cc(C(=O)N[C@@H](C)C(=O)N2CCC[C@H]2C(=O)N[C@H](C=O)CC(=O)O)cc1C [Example 122d, 3-({1-[2-(4-Methoxy-3,5-dimethyl-benzoylamino)-propionyl]-pyrrolidine-2-carbonyl}-amino)-4-oxo-butyric acid] | < 10 nM | A (category “A” indicates <5%) | C (Category “C” indicates 0.5-0.75) | 500 to 1000 nM

Now from value to compound, other results behind:

Row | Ki (Caspase-1) | Biliary Excretion [2] | f (g) Xf (h) [2] | SMILES | IC50 [1]
4 | < 10 nM | A (category “A” indicates <5%) | B (Category “B” indicates 0.25-0.49) | C[C@H](NC(=O)c1cccc2c1-c1ccccc1C2=O)C(=O)N1CCC[C@H]1C(=O)N[C@H](C=O)CC(=O)O [Example 122a] | > 2000 nM
5 | < 10 nM | A (category “A” indicates <5%) | C (Category “C” indicates 0.5-0.75) | C[C@H](NC(=O)c1ccc(N)c(Cl)c1)C(=O)N1CCC[C@H]1C(=O)N[C@H](C=O)CC(=O)O [Example 122b, 3-({-[2-(4-Amino-3-chloro-benzoylamino)-propionyl]-pyrrolidine-2-carbonyl}-amino)-4-oxo-butyric acid] | 500 to 1000 nM

Source: patent US20030232986A1, “Inhibitors of caspases” (Vertex Pharmaceuticals Incorporated, priority 1998, published 2003)
